Entries after “also recorded” stand apart in the source; their conditions may differ.
Columns and labels:
HMLEshEcad cells = assay: Co-culture of GFP-labeled HMLEshEcad cells and control HMLE cells (1:20), FACS for GFP positivity; type: cell-based, human
Protocol: FIGS. 2A-2D depict that passage through the EMT leads to resistance to conventional chemotherapy drugs. FIG. 2A depicts dose response curves of transformed HMLERshCntrl (light gray line) and HMLERshEcad (dark gray line) cells treated with Paclitaxel and Doxorubicin. Dotted line denotes the 50% fraction surviving. […] FIG. 2B depicts the response of immortalized cells to chemotherapy drugs. HMLEshCntrl and HMLEshEcad cells were treated with the indicated drugs at three concentrations for 3 days and assayed for viability using the MTS assay. While Doxorubucin, Actinomycin D, Paclitaxel and Campthotecin are chemotherapeutic drugs, Staurosporine is a general kinase inhibitor that potently induce apoptosis. FIGS. 2C and 2D depict paclitaxel treatment leads to selective expansion of a minority cell population that has undergone an EMT. Control HMLE cells and GFP expressing HMLEshEcad cells were mixed at a ratio of 20:1 and seeded onto 6-well plates in triplicate. DMSO or Paclitaxel at 2.5 nm or 10 nm concentration was added onto the mixed cell populations 1 day after seeding followed by a 3 day incubation. The number of GFP-positive cells at the end of treatment were analyzed by flow cytometry. […] Note the increase in GFP positivity from 5% to 14% upon […] Paclitaxel treatment.
To further characterize the observed drug resistance, we paclitaxel-treated co-cultures of GFP-labeled HMLEshEcad cells and unlabeled controls cells (1:20 ratio).
This was observed independently of whether or not the cell lines had undergone neoplastic transformation. To determine the effect of conventional chemotherapy drugs on a mixture of epithelial cells that have and epithelial cells that have not undergone EMT, we co-mixed GFP-labeled HMLEsiEcad cells with unlabeled HMLEsiGFP cells at a ratio of 1:20, and treated the resulting co-culture with Paclitaxel. This non-stoichiometric mixture provided an internally controlled method to evaluate whether differential drug sensitivity was also manifest under conditions in which epithelial cells having undergone EMT were in the minority.
(§1) For the mix experiments, unlabelled and GFP-labeled cells were mixed at the indicated ratios and seeded onto 6-well plates. Triplicate wells were then treated with dmso or the compounds (paclitaxel, salinomycin, abamectin and blasticidin) for 48 hrs. The cells were washed with PBS, trypsinized and analyzed by FACS for GFP positivity.

HMLE-Twist cells = assay: Co-culture of GFP-expressing HMLE cells and unlabelled HMLE-Twist cells, FACS for GFP positivity; type: cell-based, human; conditions: FIG. 4C
Protocol: (§2) FIG. 4A depicts dose response curves of HMLEshCntrl (A, light gray curve) and HMLEshEcad (A, dark gray curve) cells treated with the 8 compounds identified during the initial screen. 1000 cells of each line were seeded onto 384 well plates and treated with 8 different concentrations of compounds within a 2.5 log range. The cell viability after 3 day treatment was measured by Cell-Titer-Glo. […] FIG. 4B depicts dose response curves of HMLEshCntrl (curve with square data points) and HMLE-Twist (curve with triangular data points) cells treated with the same compounds as in (A). Note that selectivity of Salinomycin, Abamectin, Etoposide and Nigericin (Top, Left-to-Right) is retained even though a different method of EMT induction is used. […] 1 Day after seeding DMSO, Salinomycin (1.25 or 5 μM) or Abamectin (0.25 or 1.25 μM) was added at the indicated concentration. As the GFP vector contains a Blasticidin resistance gene, we used Blasticidin treatment as a positive control for the expansion of GFP-expressing control HMLE cells. After 3 day incubation the mix population of cells were analyzed by flow cytometry and the percentage of GFP-positive cells were determined. […] FIG. 4D depicts dose response curves of transformed HMLERshCntrl (light gray line) and HMLERshEcad (dark gray lines) cells treated with Salinomycin and Abamectin. Dotted line denotes the 50% fraction surviving.
To examine the effects of salinomycin and abamectin treatment on heterogeneous populations of epithelial cells that have and epithelial cells that have not undergone EMT, we co-mixed GFP-labeled HMLE cells with unlabeled HMLE-Twist cells, treating the resulting co-cultures with compounds. As a positive control for this experiment we treated co-cultures with blasticidin, which selects for the differentiated HMLE-GFP cells, which harbor a blasticidin-resistance gene.
as §1

HMLER cells = assay: Growth rate of HMLER cultures after treatment; type: cell-based, human; conditions: FIG. 6B
Protocol: FIGS. 6A and 6B depict effects of salinomycin on the CSC population in HMLER cell line. (FIG. 6A) HMLER cells were treated with vehicle control (dmso), salinomycin or paclitaxel at the indicated concentrations for 15 days. FACS analysis were performed at the end of treatment to gauge the CD44+/CD24− CSC population (right panels). Note that salinomycin decreases the CD44+/CD24− population from a basal of 4.9% to 0.2%. Treated cultures were also subjected to the mammosphere formation assay (left panels). Number of mammopsheres formed per 1000 cells from each culture are indicated below the representative photographs of assay wells. (FIG. 6B) Growth rates of HMLER cultures after treatment with vehicle control (dmso), salinomycin or paclitaxel at the indicated concentrations in (A) for 15 days.
We then turned to the critical question of whether the compounds had the general ability to inhibit CSCs in breast cancer cell lines. […] We next compared the effects of salinomycin, control vehicle DMSO and paclitaxel on HMLER cells. […] The CD44+/CD24− fraction was thus 360-fold lower following treatment with salinomycin than with paclitaxel (FIG. 6A). Proliferation of the bulk population was not inhibited following treatment with salinomycin relative to either vehicle- or paclitaxel-treatment (FIG. 6B).

HMLERshEcad cells = assay: Dose response of transformed HMLERshCntrl vs HMLERshEcad cells to screen hits; type: cell-based, human; conditions: range of concentrations, FIG. 4D
Protocol: as §2

[1] = tested on: breast CSC and progenitor genes; assay: Gene set enrichment analysis of stem-like cell gene sets after treatment; type: cell-based; conditions: in comparison with paclitaxel treatment, FIG. 16
Description: Gene set enrichment analysis was used to determine whether three previously reported sets of genes associated with stem-like cells were repressed in response to salinomycin in comparison with paclitaxel treatment. Graphed are the Kolmogorov-Smimov enrichment scores versus Gene ranks based on differential expression. P-values reflecting statistical significance for each analysis are shown.
Gene set enrichment analysis was used to determine whether three previously reported sets of genes associated with stem-like cells were repressed in response to salinomycin in comparison with paclitaxel treatment. Graphed are the Kolmogorov-Smirnov enrichment scores versus Gene ranks based on differential expression. P-values reflecting statistical significance for each analysis are shown. The three previously reported gene signatures are: CD44+CD24− IGS (Liu et al., 2007), CD44+CD24− (Shipitsin et al., 2007) and Mammosphere (Dontu et al., 2003). (FIG. 16.)

Structure (SMILES) | increase in HMLEsiEcad cells having undergone EMT (HMLEshEcad cells; 2.5 nM) | increase in HMLEsiEcad cells having undergone EMT relative to DMSO-treated co-cultures (HMLEshEcad cells; 10 nM, after 3 days, 1:20 ratio) [fold] | increase in the proportion of HMLEshEcad cells compared to DMSO-treated co-cultures (HMLEshEcad cells; 10 nM, treatment for 4 days, 1:20 ratio) [fold] | GFP positivity after treatment (from 5%) (HMLEshEcad cells; 3 day incubation) [%] | GFP-positive fraction relative to DMSO-treated controls (HMLE-Twist cells; GFP-labeled HMLE + unlabeled HMLE-Twist) | proportion of HMLETwist cells in co-culture with control cells (HMLE-Twist cells; Salinomycin 1.25 or 5 μM, Abamectin 0.25 or 1.25 μM) | proliferation of the bulk population relative to vehicle- or paclitaxel-treatment (HMLER cells) | selective toxicity for HMLERshEcad (MT tumorigenic) cells (HMLERshEcad cells) | selective toxicity for HMLERshEcad (MT tumorigenic) cells (HMLERshEcad cells; listed as Salinomycin) | expression of clinically relevant breast CSC and progenitor genes [1]
CC(=O)O[C@H]1C(=O)[C@@]2(C)[C@H]([C@H](OC(=O)c3ccccc3)[C@]3(O)C[C@H](OC(=O)[C@H](O)[C@@H](NC(=O)c4ccccc4)c4ccccc4)C(C)=C1C3(C)C)[C@]1(OC(C)=O)CO[C@@H]1C[C@@H]2O [paclitaxel] | more modest increase | 4 | 4 | 14 |  |  |  |  |  | 
CC[C@@H](C(=O)[C@@H](C)[C@@H](O)[C@H](C)[C@@H]1O[C@@H]([C@@H](CC)C(=O)O)CC[C@@H]1C)[C@H]1O[C@]2(C=C[C@@H](O)[C@]3(CC[C@@](C)([C@H]4CC[C@](O)(CC)[C@H](C)O4)O3)O2)[C@H](C)C[C@@H]1C [salinomycin] |  |  |  |  | increase | dose-dependent decrease; also recorded: selection against the GFP-negative HMLE-twist cells | not inhibited | selectively toxic | remains | reduces the expression
